The species named for assay [1] is Rattus norvegicus. The note with it: Liver, Microsomes.
Description: Ability to undergo a P450-dependent oxidative cleavage of the C=N bond by incubating with rat (untreated) liver microsomes in the presence of NADPH
The species entered for assay [2] is Rattus norvegicus. The note with it: Liver, Microsomes. This is another data set of the same source.
The species entered for assay [3] is Rattus norvegicus. The assay is described as follows: Ability to undergo a P450-dependent oxidative cleavage of their C=N bond, to release corresponding alkylketone derivative by incubating with rat (treated by DEX) liver microsomes in the presence of the NADPH. It counts as functional. For orientation: Liver microsomes are vesicles of endoplasmic reticulum, rich in cytochrome P450 enzymes.

The species entered for assay [4] is Rattus norvegicus. In words: Ability to undergo a P450-dependent oxidative cleavage of their C=N bond, to release NO3- by incubating with rat (treated by DEX) liver microsomes in the presence of NADPH. In kind it is functional.
Assay [5] is filed under the species Rattus norvegicus. The assay is described as follows: Ability to undergo a P450-dependent oxidative cleavage of the C=N bond by incubating with rat (treated by DEX) liver microsomes in the presence of NADPH. In kind it is functional.

`N/C(=N\O)N1CCCCC1`: the Formation of NO2- in the assay listed under Rattus norvegicus [1] came to 1.1 nM; in the assay listed under Rattus norvegicus [2], 79 nM.

Take `N=C(NO)Nc1ccc(Cl)cc1`: the Formation of NO2- turned out to be 0.6 nM in the assay filed under Rattus norvegicus [1] and 18.4 nM in the assay listed under Rattus norvegicus [2]. Also, in the assay listed under Rattus norvegicus [3], the Formation of compound worked out at 17.7 nM. Also, in the assay listed under Rattus norvegicus [4], the Formation of NO3- came out at 4.4 nM.

Regarding `N/C(=N/c1ccc(C(F)(F)F)cc1)NO`, the Formation of NO2- was < 0.1 nM in the assay listed under Rattus norvegicus [1] and 11 nM in the assay filed under Rattus norvegicus [2].

`CC(C)/N=C(/NO)NC(C)C`: the results for the Formation of NO2- in the assay filed under Rattus norvegicus [1] and in the assay filed under Rattus norvegicus [2] were 0.9 nM and 62 nM, respectively.

Consider `O/N=C/c1ccccc1`, for which the Formation of NO2- in the assay filed under Rattus norvegicus [1] is < 0.1 nM; in the assay listed under Rattus norvegicus [2], 3 nM.

As to `N/C(=N\O)c1ccccc1`, the Formation of NO2- amounted to 0.2 nM in the assay filed under Rattus norvegicus [1] and 2.5 nM in the assay listed under Rattus norvegicus [2].

In the case of `CCCCCC/C=N/O`, the Formation of NO2- in the assay listed under Rattus norvegicus [1] stood at 0.2 nM; in the assay listed under Rattus norvegicus [2] it was 3.7 nM.

For the compound `ON=C1CCCCC1`, the Formation of NO2- in the assay filed under Rattus norvegicus [1] was < 0.1 nM; in the assay filed under Rattus norvegicus [2] it was 3 nM.

Turning to `N/C(=N\O)c1ccc(Cl)cc1`, the results for the Formation of NO2- in the assay filed under Rattus norvegicus [1] and in the assay listed under Rattus norvegicus [2] were 0.7 nM and 2.6 nM, respectively. Besides, the Formation of compound in the assay filed under Rattus norvegicus [3] is 5.1 nM. The Formation of NO3- in the assay listed under Rattus norvegicus [4] worked out at 1.5 nM.

Regarding `C/C(=N\O)c1ccccc1`, the Formation of NO2- is < 0.1 nM in the assay filed under Rattus norvegicus [1] and 3.2 nM in the assay filed under Rattus norvegicus [2].

For `ON=C(NC1CCCCC1)NC1CCCCC1`, the Formation of NO2- was < 0.1 nM in the assay filed under Rattus norvegicus [1] and 58 nM in the assay filed under Rattus norvegicus [2].

As to `CCCCC/C(C)=N\O`, the figures for the Formation of NO2- in the assay listed under Rattus norvegicus [1] and in the assay filed under Rattus norvegicus [2] were < 0.1 nM and 7 nM, respectively.

Turning to `C/C(=N\O)c1ccc(Cl)cc1`, the Formation of NO3- in the assay filed under Rattus norvegicus [5] came out at 1.2 nM. Also, the Formation of NO2- was 0.1 nM in the assay filed under Rattus norvegicus [1] and 6.2 nM in the assay listed under Rattus norvegicus [2]. Also, the Formation of compound in the assay listed under Rattus norvegicus [3] was found to be 6.4 nM.

Turning to `CCCC/C(CC)=N\O`, the results for the Formation of NO2- in the assay listed under Rattus norvegicus [1] and in the assay filed under Rattus norvegicus [2] were < 0.1 nM and 5.1 nM, respectively.

On to `O/N=C/c1ccc(Cl)cc1`, for which the values for the Formation of NO2- in the assay filed under Rattus norvegicus [1] and in the assay listed under Rattus norvegicus [2] were < 0.1 nM and 2 nM, respectively.

Regarding `CCCCCCOc1ccc(C(=N)NO)cc1`, the figures for the Formation of NO2- in the assay listed under Rattus norvegicus [1] and in the assay filed under Rattus norvegicus [2] were 0.6 nM and 6.8 nM, respectively. Further, in the assay filed under Rattus norvegicus [3], the Formation of compound worked out at 12.5 nM. In addition, in the assay listed under Rattus norvegicus [4], the Formation of NO3- came to 8.1 nM.

Consider `N/C(=N/C1CCCCC1)NO`, for which the Formation of NO2- in the assay listed under Rattus norvegicus [1] was < 0.1 nM; in the assay filed under Rattus norvegicus [2], 28.6 nM.

(Values after ChEMBL document CHEMBL1128622, “Formation of nitrogen oxides including NO from oxidative cleavage of CN(OH) bonds: A general cytochrome P450-dependent reaction” (Bioorg Med Chem Lett, 1995).)
